Laboratory results: patent US12679878B2, “CRF2 receptor agonists and their use in therapy” (SANOFI, priority 2020, dated 2026)
Starred links: 1 amine or outer side, 2 acyl side, 3 side chain; linkers in the order of their positions; H or OH if unused. Non-standard residues stand in square brackets, D forms with d. Residues, ends and D or L forms follow the SMILES beside them. Groups on a side chain read outwards from the residue. No end group written: not given here. *: point of attachment. C20 diacid = O=C(O)CCCCCCCCCCCCCCCCCCC(=O)*; C18 diacid = O=C(O)CCCCCCCCCCCCCCCCC(=O)*; γGlu = O=C(O)[C@H](CCC(=O)[*:2])N[*:1]; Palmitoyl = CCCCCCCCCCCCCCCC(=O)*; AEEA = NCCOCCOCC(=O)O; Aib = CC(C)(N)C(=O)O

T1: CRF1R receptor (Homo sapiens, UniProt P34998)
T1 construct: host or cells: CHO-K1 clone 2
T1 sequence (P34998 24-415): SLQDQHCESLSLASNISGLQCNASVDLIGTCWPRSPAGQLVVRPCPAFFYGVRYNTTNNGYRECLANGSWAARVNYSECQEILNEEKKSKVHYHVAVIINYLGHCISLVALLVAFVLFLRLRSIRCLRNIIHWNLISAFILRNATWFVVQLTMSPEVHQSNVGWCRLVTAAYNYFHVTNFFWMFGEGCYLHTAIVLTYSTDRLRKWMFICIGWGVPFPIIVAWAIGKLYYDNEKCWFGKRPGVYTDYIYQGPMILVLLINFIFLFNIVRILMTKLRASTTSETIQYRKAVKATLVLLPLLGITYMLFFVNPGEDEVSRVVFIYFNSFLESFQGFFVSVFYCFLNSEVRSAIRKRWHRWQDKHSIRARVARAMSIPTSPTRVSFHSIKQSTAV

T2: human CRF2α receptor (Homo sapiens, UniProt Q13324)
T2 construct: expressed in transfected cells; host or cells: TeloHEAC
T2 sequence (Q13324 1-411): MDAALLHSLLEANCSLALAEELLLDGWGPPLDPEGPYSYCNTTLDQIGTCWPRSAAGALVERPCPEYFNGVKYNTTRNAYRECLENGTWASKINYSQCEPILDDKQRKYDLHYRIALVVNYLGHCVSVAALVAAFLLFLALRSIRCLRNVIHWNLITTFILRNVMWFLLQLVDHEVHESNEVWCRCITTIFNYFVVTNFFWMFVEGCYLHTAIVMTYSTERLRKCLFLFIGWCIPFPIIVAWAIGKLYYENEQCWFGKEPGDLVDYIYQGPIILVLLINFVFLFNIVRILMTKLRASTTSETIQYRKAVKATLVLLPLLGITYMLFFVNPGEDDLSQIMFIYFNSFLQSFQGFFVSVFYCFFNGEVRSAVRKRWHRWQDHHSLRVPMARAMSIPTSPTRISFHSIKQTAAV

T3: anti-target CRF1R receptor (UniProt P34998 24-415, limits assumed)
T3 sequence (looked up): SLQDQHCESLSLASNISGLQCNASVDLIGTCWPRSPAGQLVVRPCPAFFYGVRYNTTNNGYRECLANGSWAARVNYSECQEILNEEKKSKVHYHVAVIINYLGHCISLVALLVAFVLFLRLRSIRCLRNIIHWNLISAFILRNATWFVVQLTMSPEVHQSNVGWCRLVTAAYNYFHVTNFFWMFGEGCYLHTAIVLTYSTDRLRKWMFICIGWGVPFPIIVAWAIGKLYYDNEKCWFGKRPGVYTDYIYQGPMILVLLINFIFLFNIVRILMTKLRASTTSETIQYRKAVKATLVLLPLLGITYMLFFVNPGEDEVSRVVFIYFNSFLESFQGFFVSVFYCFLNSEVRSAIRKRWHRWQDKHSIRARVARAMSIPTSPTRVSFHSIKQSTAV


Experiments:
CRF1R receptor = target: T1, CRF1R receptor; assay: cAMP activity at anti-target CRF1R, CRF1R-overexpression CHO cell line (Example 9); assay type: cell-based; conditions: CRF1R-overexpression CHO cell line; for EC50: 0% HSA; for Emax: read-out: Emax (%)
Protocol: Cells were grown in a T175 culture flask placed at 37° C. to near confluence in medium (DMEM/10% FBS) and collected in 2 ml vials in cell culture medium containing 10% DMSO in a concentration of 10-50 million cells/ml. Each vial contained 1.8 ml cells. The vials were slowly frozen to −80° C. in isopropanol and then transferred in liquid nitrogen for storage. Prior to use, frozen cells were thawed quickly at 37° C. and washed (5 min at 900 rpm) with 20 ml cell buffer (1×HBSS; 20 mM HEPES; 0% or 0.1% HSA). Cells were resuspended in assay buffer (cell buffer plus 2 mM IBMX) and adjusted to a cell density of 1 million cells/ml. For measurement, 5 μl cells (final […]) and 5 μL of test compound were added to a 384-well plate, followed by incubation for 30 minutes at room temperature.
The CAMP content of cells was determined using a kit from Cisbio Corp. (cat. no. 62AM4PEC) based on HTRF (Homogenous Time Resolved Fluorescence). […] The percent activity value (E %) was calculated by setting 1000 nM of urocortin 2 (UCN2) as 100%.
A CRF1R-overexpression CHO cell line was used in this study.

human CRF2α receptor = target: T2, human CRF2α receptor; assay: cAMP agonism at human CRF2 α receptor in TeloHEAC cells (Example 7); assay type: cell-based; conditions: cAMP HTRF, TeloHEAC cells stably expressing human CRF2 α, 0% HSA; read-out: EC50 [nM], 0% HSA
Outline: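 Thawed frozen stably transfected cells in HBSS/20 mM HEPES (0% or 0.1% HSA) plus 2 mM IBMX were exposed to compound at 2000 cells/well for 30 min at room temperature. Intracellular cAMP was read by HTRF (665/620 nm ratio) after 1 h lysis; EC50 was derived with 1000 nM urocortin 2 set as 100%.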

[1] = target: T3, anti-target CRF1R receptor; assay: cell-based or functional assay

| EC50 (CRF1R receptor) | Emax (CRF1R receptor) | EC50 (human CRF2α receptor) | EC50[nM] 0% HSA (cAMP, CRF1R-overexpression CHO cells) [1] | Emax (%) (cAMP, CRF1R-overexpression CHO cells) [1] | Molecule |
| --- | --- | --- | --- | --- | --- |
| > 1000 nM | 37.4% | 0.04 nM | – | – | CCCCCCCCCCCCCCCC(=O)N[C@@H](CCC(=O)NCCCC[C@H](NC(=O)[C@H](CC(C)C)NC(=O)CNC(=O)[C@@H](NC(=O)[C@@H]1CCCN1C(=O)[C@@H](NC(=O)[C@H](CC(=O)O)NC(=O)[C@H](CC(C)C)NC(=O)[C@H](CO)NC(=O)[C@H](CC(C)C)NC(=O)[C@@H](NC(=O)[C@@H](N)[C@@H](C)CC)C(C)C)C(C)C)[C@@H](C)CC)C(=O)N[C@@H](CCC(N)=O)C(=O)N[C@@H](CCCCN)C(=O)N[C@@H](CC(C)C)C(=O)N[C@@H](CC(C)C)C(=O)N[C@@H](CCCCN)C(=O)N[C@@H](CCC(N)=O)C(=O)N[C@@H](CCC(N)=O)C(=O)N[C@@H](CCCNC(=N)N)C(=O)N[C@@H](CCC(N)=O)C(=O)N[C@@H](CCCNC(=N)N)C(=O)N[C@@H](CCCCN)C(=O)N[C@@H](CCC(=O)O)C(=O)N[C@@H](CCCNC(=N)N)C(=O)N[C@@H](CCC(N)=O)C(=O)N[C@@H](CCC(N)=O)C(=O)N[C@@H](C)C(=O)N[C@@H](CCC(=O)O)C(=O)N[C@H](C(=O)N[C@@H](CC(N)=O)C(=O)N[C@@H](C)C(=O)N[C@@H](CCCNC(=N)N)C(=O)N[C@H](C(=O)N[C@@H](CC(C)C)C(=O)N[C@@H](C)C(=O)N[C@@H](CCCNC(=N)N)C(=O)N[C@H](C(N)=O)C(C)C)[C@@H](C)CC)[C@@H](C)O)C(=O)O [compound 5] (H-IVLSLDVPIGLK([γGlu-Palmitoyl])QKLLKQQRQRKERQQAETNARILARV-NH2; N-terminus assumed) |
| > 1000 nM | 14.9% | – | – | – | CCCCCCCCCCCCCCCC(=O)N[C@@H](CCC(=O)NCCCC[C@H](NC(=O)[C@@H](NC(=O)[C@H](CCCCN)NC(=O)[C@@H](NC(=O)[C@@H]1CCCN1C(=O)[C@@H](NC(=O)[C@H](CC(=O)O)NC(=O)[C@H](CC(C)C)NC(=O)[C@H](CO)NC(=O)[C@H](CC(C)C)NC(=O)[C@@H](NC(=O)[C@@H](N)Cc1ccccc1)[C@@H](C)O)C(C)C)[C@@H](C)O)[C@@H](C)CC)C(=O)N[C@@H](CCC(N)=O)C(=O)N[C@@H](CCCCN)C(=O)N[C@@H](CC(C)C)C(=O)N[C@@H](CC(C)C)C(=O)N[C@@H](CCCCN)C(=O)N[C@@H](CCC(N)=O)C(=O)N[C@@H](CCC(=O)O)C(=O)N[C@@H](CCCCN)C(=O)N[C@@H](CCC(N)=O)C(=O)N[C@@H](CCCCN)C(=O)N[C@@H](CCCCN)C(=O)N[C@@H](CCC(N)=O)C(=O)N[C@@H](CCCNC(=N)N)C(=O)N[C@@H](CCC(N)=O)C(=O)N[C@@H](CCCCN)C(=O)N[C@@H](C)C(=O)N[C@@H](CCCCN)C(=O)N[C@H](C(=O)N[C@@H](C)C(=O)N[C@@H](CCCCN)C(=O)N[C@@H](CCC(N)=O)C(=O)N[C@H](C(=O)N[C@@H](CC(C)C)C(=O)N[C@@H](CCC(=O)O)C(=O)N[C@@H](CCC(N)=O)C(=O)N[C@H](C(N)=O)C(C)C)[C@@H](C)CC)[C@@H](C)O)C(=O)O [compound 9] (H-FTLSLDVPTKIK([γGlu-Palmitoyl])QKLLKQEKQKKQRQKAKTAKQILEQV-NH2) |
| – | – | – | > 1000 nM | 25.6% | IVLSLD[dV]PIKLK([AEEA-AEEA-γGlu-γGlu-C20 diacid])QILLKQERQK[Aib]QREQAEKNKQILAQV-NH2 (N-terminus assumed; SMILES CC[C@H](C)[C@H](N)C(=O)N[C@H](C(=O)N[C@@H](CC(C)C)C(=O)N[C@@H](CO)C(=O)N[C@@H](CC(C)C)C(=O)N[C@@H](CC(=O)O)C(=O)N[C@@H](C(=O)N1CCC[C@H]1C(=O)N[C@H](C(=O)N[C@@H](CCCCN)C(=O)N[C@@H](CC(C)C)C(=O)N[C@@H](CCCCNC(=O)COCCOCCNC(=O)COCCOCCNC(=O)CC[C@H](NC(=O)CC[C@H](NC(=O)CCCCCCCCCCCCCCCCCCC(=O)O)C(=O)O)C(=O)O)C(=O)N[C@@H](CCC(N)=O)C(=O)N[C@H](C(=O)N[C@@H](CC(C)C)C(=O)N[C@@H](CC(C)C)C(=O)N[C@@H](CCCCN)C(=O)N[C@@H](CCC(N)=O)C(=O)N[C@@H](CCC(=O)O)C(=O)N[C@@H](CCCNC(=N)N)C(=O)N[C@@H](CCC(N)=O)C(=O)N[C@@H](CCCCN)C(=O)NC(C)(C)C(=O)N[C@@H](CCC(N)=O)C(=O)N[C@@H](CCCNC(=N)N)C(=O)N[C@@H](CCC(=O)O)C(=O)N[C@@H](CCC(N)=O)C(=O)N[C@@H](C)C(=O)N[C@@H](CCC(=O)O)C(=O)N[C@@H](CCCCN)C(=O)N[C@@H](CC(N)=O)C(=O)N[C@@H](CCCCN)C(=O)N[C@@H](CCC(N)=O)C(=O)N[C@H](C(=O)N[C@@H](CC(C)C)C(=O)N[C@@H](C)C(=O)N[C@@H](CCC(N)=O)C(=O)N[C@H](C(N)=O)C(C)C)[C@@H](C)CC)[C@@H](C)CC)[C@@H](C)CC)C(C)C)C(C)C) [peptide of SEQ ID NO: 172] |
| – | – | – | > 1000 nM | 7.54% | IVLSLD[dV]PIKLK([AEEA-AEEA-γGlu-γGlu-C18 diacid])QILLKQERQK[Aib]QREQAEKNKQILAQV-NH2 (N-terminus assumed; SMILES CC[C@H](C)[C@H](N)C(=O)N[C@H](C(=O)N[C@@H](CC(C)C)C(=O)N[C@@H](CO)C(=O)N[C@@H](CC(C)C)C(=O)N[C@@H](CC(=O)O)C(=O)N[C@@H](C(=O)N1CCC[C@H]1C(=O)N[C@H](C(=O)N[C@@H](CCCCN)C(=O)N[C@@H](CC(C)C)C(=O)N[C@@H](CCCCNC(=O)COCCOCCNC(=O)COCCOCCNC(=O)CC[C@H](NC(=O)CC[C@H](NC(=O)CCCCCCCCCCCCCCCCC(=O)O)C(=O)O)C(=O)O)C(=O)N[C@@H](CCC(N)=O)C(=O)N[C@H](C(=O)N[C@@H](CC(C)C)C(=O)N[C@@H](CC(C)C)C(=O)N[C@@H](CCCCN)C(=O)N[C@@H](CCC(N)=O)C(=O)N[C@@H](CCC(=O)O)C(=O)N[C@@H](CCCNC(=N)N)C(=O)N[C@@H](CCC(N)=O)C(=O)N[C@@H](CCCCN)C(=O)NC(C)(C)C(=O)N[C@@H](CCC(N)=O)C(=O)N[C@@H](CCCNC(=N)N)C(=O)N[C@@H](CCC(=O)O)C(=O)N[C@@H](CCC(N)=O)C(=O)N[C@@H](C)C(=O)N[C@@H](CCC(=O)O)C(=O)N[C@@H](CCCCN)C(=O)N[C@@H](CC(N)=O)C(=O)N[C@@H](CCCCN)C(=O)N[C@@H](CCC(N)=O)C(=O)N[C@H](C(=O)N[C@@H](CC(C)C)C(=O)N[C@@H](C)C(=O)N[C@@H](CCC(N)=O)C(=O)N[C@H](C(N)=O)C(C)C)[C@@H](C)CC)[C@@H](C)CC)[C@@H](C)CC)C(C)C)C(C)C) [peptide of SEQ ID NO: 171] |
